Results published in patent US8290713B2, “Method for predicting protein aggregation and designing aggregation inhibitors” (Lonza Biologics PLLC, priority 2006, dated 2012).

Biological target: ASYN (α-synuclein) (Homo sapiens, UniProt P37840)
Experiment: ASYN aggregation assay in TBS monitored by thioflavin T fluorescence
Format: biochemical
Details: 50 μM ASYN, 100 μM inhibitor, 50 mM tris, 150 mM NaCl, 20 μM Thioflavin T, 37 C with shaking, 48 hours; sigmoidal fit
Protocol: All peptides were tested for inhibition of ASYN aggregation in TBS by carrying out aggregation assays with 50 μM ASYN and 100 μM inhibitor with 50 mM tris and 150 mM NaCl and 20 μM Thioflavin T. The reaction volume was 200 μL. Each reaction was set up in a 96 well polypropylene plate with ASYN only and buffer only controls. The reactions were incubated at 37 C with shaking for 48 hours and aggregation was monitored by reading thioflavin T fluorescence.
The kinetic traces were fitted using Zyentiafit software which fits the data to a Sigmoidal function f(x)=k+A/(1+exp(−b(t−t0))) from which the lag time, rate of aggregation and total change in ThT fluorescence may be calculated.

- % decrease in ThT fluorescence: 3.7%
- % decrease in rate of aggregation: −2.3%
- % increase in Lag phase: 43.0%
Substance: Ac-hpviva-NH2 [ZP-0164]
